Our source for the relative viability values is the supplement of paper PMC10307832.

Each structure is given as a SMILES string.

In one experiment the test system is H3255. The experiment in a line: relative viability (nuclei count vs DMSO), 5 days (fraction); higher = more cells survive. Conditions: first compound 2 µM. The method, boiled down:
(§1)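 A single step with final 0.05% Triton X-100, 1% formaldehyde and 1 ug/ml Hoechst fixed the cells and stained nuclei 5 days after treatment. Lung cancer cell lines in 1536-well plates had been treated by pin tool the day after seeding with one drug alone or a fixed anchor-drug dose plus five library-drug doses (not always all listed) in √10 steps, and nuclei were counted on 4× images. Relative viability is the ratio of nuclei in treated wells to nuclei in vehicle wells, taken as the median of duplicate plates.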
For `COCC1(CO)C(=O)C2CCN1CC2` (stereo unspecified) [PRIMA-1MET] + COc1cc2c(Oc3ccc(NC(=O)C4(C(=O)Nc5ccc(F)cc5)CC4)cc3F)ccnc2cc1OCCCN1CCOCC1 [Foretinib] (partner 0.25 µM), the relative viability worked out at 0.807.

The compound `COCC1(CO)C(=O)C2CCN1CC2` (stereo unspecified) [PRIMA-1MET] + NC(=O)Nc1cc(-c2cccc(F)c2)sc1C(=O)N[C@H]1CCCNC1 [AZD7762] (partner 0.2 µM) registered a relative viability of 0.955.

Take `COCC1(CO)C(=O)C2CCN1CC2` (stereo unspecified) [PRIMA-1MET] + Nc1nc2[nH]cc(CCc3ccc(C(=O)N[C@@H](CCC(=O)O)C(=O)O)cc3)c2c(=O)[nH]1 [Pemetrexed] (partner 0.2 µM): the relative viability turned out to be 0.601.

For the compound `COCC1(CO)C(=O)C2CCN1CC2` (stereo unspecified) [PRIMA-1MET] + CC(=O)Nc1cccc(-n2c(=O)n(C3CC3)c(=O)c3c(Nc4ccc(I)cc4F)n(C)c(=O)c(C)c32)c1 [Trametinib] (partner 0.02 µM), the relative viability turned out to be 0.57.

`COCC1(CO)C(=O)C2CCN1CC2` (stereo unspecified) [PRIMA-1MET] + Nc1ncn([C@H]2C[C@H](O)[C@@H](CO)O2)c(=O)n1 [Decitabine] (partner 2 µM) displayed a relative viability of 0.524.

Still in this experiment, the particulars now being: first compound 6.325 µM.
Regarding `COCC1(CO)C(=O)C2CCN1CC2` (stereo unspecified) [PRIMA-1MET] + COc1cc2c(Oc3ccc(NC(=O)C4(C(=O)Nc5ccc(F)cc5)CC4)cc3F)ccnc2cc1OCCCN1CCOCC1 [Foretinib] (partner 0.25 µM), the relative viability turned out to be 1.05.

For `COCC1(CO)C(=O)C2CCN1CC2` (stereo unspecified) [PRIMA-1MET] + NC(=O)Nc1cc(-c2cccc(F)c2)sc1C(=O)N[C@H]1CCCNC1 [AZD7762] (partner 0.2 µM), the relative viability stood at 1.06.

For the compound `COCC1(CO)C(=O)C2CCN1CC2` (stereo unspecified) [PRIMA-1MET] + Nc1nc2[nH]cc(CCc3ccc(C(=O)N[C@@H](CCC(=O)O)C(=O)O)cc3)c2c(=O)[nH]1 [Pemetrexed] (partner 0.2 µM), the relative viability stood at 0.567.

`COCC1(CO)C(=O)C2CCN1CC2` (stereo unspecified) [PRIMA-1MET] + CC(=O)Nc1cccc(-n2c(=O)n(C3CC3)c(=O)c3c(Nc4ccc(I)cc4F)n(C)c(=O)c(C)c32)c1 [Trametinib] (partner 0.02 µM): the relative viability was 0.575.

For the compound `COCC1(CO)C(=O)C2CCN1CC2` (stereo unspecified) [PRIMA-1MET] + Nc1ncn([C@H]2C[C@H](O)[C@@H](CO)O2)c(=O)n1 [Decitabine] (partner 2 µM), the relative viability was 0.695.

Still in this experiment, the particulars now being: first compound 20 µM.
As to `COCC1(CO)C(=O)C2CCN1CC2` (stereo unspecified) [PRIMA-1MET] + COc1cc2c(Oc3ccc(NC(=O)C4(C(=O)Nc5ccc(F)cc5)CC4)cc3F)ccnc2cc1OCCCN1CCOCC1 [Foretinib] (partner 0.25 µM), the relative viability was determined as 0.924.

In the case of `COCC1(CO)C(=O)C2CCN1CC2` (stereo unspecified) [PRIMA-1MET] + NC(=O)Nc1cc(-c2cccc(F)c2)sc1C(=O)N[C@H]1CCCNC1 [AZD7762] (partner 0.2 µM), the relative viability turned out to be 0.775.

As to `COCC1(CO)C(=O)C2CCN1CC2` (stereo unspecified) [PRIMA-1MET] + Nc1nc2[nH]cc(CCc3ccc(C(=O)N[C@@H](CCC(=O)O)C(=O)O)cc3)c2c(=O)[nH]1 [Pemetrexed] (partner 0.2 µM), the relative viability turned out to be 0.534.

With `COCC1(CO)C(=O)C2CCN1CC2` (stereo unspecified) [PRIMA-1MET] + CC(=O)Nc1cccc(-n2c(=O)n(C3CC3)c(=O)c3c(Nc4ccc(I)cc4F)n(C)c(=O)c(C)c32)c1 [Trametinib] (partner 0.02 µM), the relative viability is 0.55.

Compound `COCC1(CO)C(=O)C2CCN1CC2` (stereo unspecified) [PRIMA-1MET] + Nc1ncn([C@H]2C[C@H](O)[C@@H](CO)O2)c(=O)n1 [Decitabine] (partner 2 µM) showed a relative viability of 0.522.

For another experiment, the system named is NCI-H1651. The description is as above. To be noted: first compound 0.2 µM. The method in brief: as §1
`COCC1(CO)C(=O)C2CCN1CC2` (stereo unspecified) [PRIMA-1MET] + COc1cc2c(Oc3ccc(NC(=O)C4(C(=O)Nc5ccc(F)cc5)CC4)cc3F)ccnc2cc1OCCCN1CCOCC1 [Foretinib] (partner 0.25 µM) displayed a relative viability of 0.87.

On to `COCC1(CO)C(=O)C2CCN1CC2` (stereo unspecified) [PRIMA-1MET] + NC(=O)Nc1cc(-c2cccc(F)c2)sc1C(=O)N[C@H]1CCCNC1 [AZD7762] (partner 0.2 µM), for which the relative viability amounted to 0.442.

`COCC1(CO)C(=O)C2CCN1CC2` (stereo unspecified) [PRIMA-1MET] + Nc1nc2[nH]cc(CCc3ccc(C(=O)N[C@@H](CCC(=O)O)C(=O)O)cc3)c2c(=O)[nH]1 [Pemetrexed] (partner 0.2 µM): the relative viability is 0.641.

As for `COCC1(CO)C(=O)C2CCN1CC2` (stereo unspecified) [PRIMA-1MET] + CC(=O)Nc1cccc(-n2c(=O)n(C3CC3)c(=O)c3c(Nc4ccc(I)cc4F)n(C)c(=O)c(C)c32)c1 [Trametinib] (partner 0.02 µM), the relative viability was determined as 0.826.

The compound `COCC1(CO)C(=O)C2CCN1CC2` (stereo unspecified) [PRIMA-1MET] + Nc1ncn([C@H]2C[C@H](O)[C@@H](CO)O2)c(=O)n1 [Decitabine] (partner 2 µM) came in with a relative viability of 0.616.

Staying with this experiment, now noted: first compound 0.6325 µM.
As to `COCC1(CO)C(=O)C2CCN1CC2` (stereo unspecified) [PRIMA-1MET] + COc1cc2c(Oc3ccc(NC(=O)C4(C(=O)Nc5ccc(F)cc5)CC4)cc3F)ccnc2cc1OCCCN1CCOCC1 [Foretinib] (partner 0.25 µM), the relative viability is 0.578.

`COCC1(CO)C(=O)C2CCN1CC2` (stereo unspecified) [PRIMA-1MET] + NC(=O)Nc1cc(-c2cccc(F)c2)sc1C(=O)N[C@H]1CCCNC1 [AZD7762] (partner 0.2 µM) returned a relative viability of 0.443.

`COCC1(CO)C(=O)C2CCN1CC2` (stereo unspecified) [PRIMA-1MET] + Nc1nc2[nH]cc(CCc3ccc(C(=O)N[C@@H](CCC(=O)O)C(=O)O)cc3)c2c(=O)[nH]1 [Pemetrexed] (partner 0.2 µM) displayed a relative viability of 0.192.

Regarding `COCC1(CO)C(=O)C2CCN1CC2` (stereo unspecified) [PRIMA-1MET] + CC(=O)Nc1cccc(-n2c(=O)n(C3CC3)c(=O)c3c(Nc4ccc(I)cc4F)n(C)c(=O)c(C)c32)c1 [Trametinib] (partner 0.02 µM), the relative viability is 0.562.

Compound `COCC1(CO)C(=O)C2CCN1CC2` (stereo unspecified) [PRIMA-1MET] + Nc1ncn([C@H]2C[C@H](O)[C@@H](CO)O2)c(=O)n1 [Decitabine] (partner 2 µM) yielded a relative viability of 0.178.

Still in this experiment, the particulars now being: first compound 2 µM.
As for `COCC1(CO)C(=O)C2CCN1CC2` (stereo unspecified) [PRIMA-1MET] + COc1cc2c(Oc3ccc(NC(=O)C4(C(=O)Nc5ccc(F)cc5)CC4)cc3F)ccnc2cc1OCCCN1CCOCC1 [Foretinib] (partner 0.25 µM), the relative viability was found to be 0.77.

In turn, `COCC1(CO)C(=O)C2CCN1CC2` (stereo unspecified) [PRIMA-1MET] + NC(=O)Nc1cc(-c2cccc(F)c2)sc1C(=O)N[C@H]1CCCNC1 [AZD7762] (partner 0.2 µM) came in with a relative viability of 0.478.

As to `COCC1(CO)C(=O)C2CCN1CC2` (stereo unspecified) [PRIMA-1MET] + Nc1nc2[nH]cc(CCc3ccc(C(=O)N[C@@H](CCC(=O)O)C(=O)O)cc3)c2c(=O)[nH]1 [Pemetrexed] (partner 0.2 µM), the relative viability is 0.542.

Consider `COCC1(CO)C(=O)C2CCN1CC2` (stereo unspecified) [PRIMA-1MET] + CC(=O)Nc1cccc(-n2c(=O)n(C3CC3)c(=O)c3c(Nc4ccc(I)cc4F)n(C)c(=O)c(C)c32)c1 [Trametinib] (partner 0.02 µM), for which the relative viability worked out at 0.842.

As for `COCC1(CO)C(=O)C2CCN1CC2` (stereo unspecified) [PRIMA-1MET] + Nc1ncn([C@H]2C[C@H](O)[C@@H](CO)O2)c(=O)n1 [Decitabine] (partner 2 µM), the relative viability worked out at 0.585.

Still in this experiment, the particulars now being: first compound 6.325 µM.
On to `COCC1(CO)C(=O)C2CCN1CC2` (stereo unspecified) [PRIMA-1MET] + COc1cc2c(Oc3ccc(NC(=O)C4(C(=O)Nc5ccc(F)cc5)CC4)cc3F)ccnc2cc1OCCCN1CCOCC1 [Foretinib] (partner 0.25 µM), for which the relative viability came to 0.933.
